Source: US12357699B2, “B-cell immunotherapy in cancer treatment” (AKAMARA THERAPEUTICS, INC., priority 2018, dated 2025)

Columns and labels:
4T1 cells [1] = assay: 4T1 tumor growth in B cell-deficient mice (Jh−/−); assay type: in vivo; settings: 4T1 tumors
Method: (§1) 4T1 cells were subcutaneously implanted in the mice strains mentioned and when tumors reached an average volume of 100 mm^3, they were divided into two groups. One group was kept as control and the other treated with IO-125 and tumor volume in all the animals were recorded.

IGKC [2] = assay: Immune biomarker expression (molecular immunophenotyping, immunohistochemistry of FFPE sections) in LLC tumors; assay type: in vivo, C57/BL6 mice
Source text: (§2) In contrast, 45% of the animals underwent complete tumor regression when the two drugs were combined. These observations illustrate that combinations of IO-125 with immune checkpoint inhibitor(s) augment tumor regression as compared to monotherapies.
Subsequently, tumors were harvested and a portion fixed in formalin.

4T1 cells [3] = assay: Tumor rechallenge (immune memory study), re-implantation of 4T1 cells; assay type: in vivo, Balb/c mice
Method: 4T1 cells were subcutaneously implanted in Balb/c mice to generate tumors. When tumors reached an average volume of 100 mm^3, they were treated with IO-125 (Group 1). Two groups of Balb/c mice (non-tumor bearing) were either treated with IO-125 or saline (designated Group 2 and 3 respectively; FIG. 3A). Immune memory cells are poised to rapidly expand and induce effector functions upon recurrence, while existing in a functionally quiescent state. To verify this hypothesis, we examined immune memory in IO-125 treated tumors.

[4] = tested on: genes involved in B cell differentiation and TLR activation; assay: Relative mRNA expression in splenic B cells isolated from treated mice; assay type: in vivo, Balb/c mice; settings: tumor bearing treated mice (Group 1)
Method: Splenic B cells were isolated from Group 1 and Group 2 mice, described in Example 3. Spleen was harvested from mice (n=3) and minced into small pieces in RPMI-1640 basal media. The pieces were placed on top of a 40 mesh membrane and crushed with the back of a syringe and the single cell suspension was collected onto a 50 mL tube. The single cell suspension was washed twice with PBS to remove debris by centrifuging at 2000 rpm. Splenocytes were counted using haemocytometer and 100 million splenocytes were resuspended in 1 mL of Isolation buffer (2% FBS, […] in DPBS) and transferred to a 5 ml Polystyrene tube. The B cells were isolated from splenocytes using the EasySep Stem Cell B cell isolation kit as per manufacturers protocol. One part of the isolated B cells was used for RNA isolation, followed by relative mRNA expression levels of genes involved in B cell differentiation and TLR activation were evaluated; while the second part was used for immunodetection of specific proteins, following the manufacturer's protocol.

[5] = tested on: B cell differentiation and TLR activation markers; assay: Relative mRNA expression in naive splenic B cells cultured with conditioned media (TCM) from treated 4T1 cells; assay type: cell-based, mice; settings: splenic B cells 48 hours in TCM from 4T1 cells treated 6 hours plus 42 hours
Method: 4T1 cells were seeded in cell culture dishes in IMDM media containing 10% FBS. The cells were treated with blank supramolecule (Vehicle) and IO-125 when they reached 60% confluence. Following a transient treatment of 6 hours, the media was removed and supplemented with fresh culture media and cells were incubated for additional 42 hours. Following treatment, the conditioned media from 4T1 cells (TCM) was collected for each treatment and filtered through 0.2 micron PES filters to obtain TCM free of cell debris. The harvested TCMs were used immediately for conditioning of B cells, isolated from naïve mice splenocytes using the EasySep Stem Cell B cell isolation kit as per manufacturers protocol. The B cells were incubated with conditioned media and harvested after 48 hours of incubation. RNA was isolated from the B cells and used for relative mRNA expression level evaluation of genes involved in B cell differentiation and TLR activation.

4T1 cells [6] = assay: 4T1 tumor growth in mice lacking functional B cells and T cells (SCID); assay type: in vivo; settings: 4T1 tumors
Method: as §1

IGKC [7] = assay: Semi-quantitative PCR of immune activating and suppressive genes in 4T1 tumors; assay type: in vivo, Balb/c mice; settings: 4T1 tumors harvested after one cycle, 20 mgPt/kg
Source text: (§3) The efficacy of IO-125 was examined in the murine triple negative breast cancer (TNBC) tumor model (4T1). 4T1 cells were subcutaneously implanted in Balb/c mice to generate tumors and treated with IO-125 or saline (control), when tumors reached an average volume of 100 mm^3. The dose administered for IO-125 was 20 mgPt/kg, with a regimen of b5d. Following one cycle of treatment, tumors were harvested and a portion of the tumor from control and IO-125 treated group was used for total RNA isolation and subsequent evaluation of immune activating and immune suppressive genes (Denkert et al., Clin Oncol. 2015; 33(9):983-91) by semi-quantitative PCR. IO-125 treatment was continued for an additional cycle, with recording of tumor volume and examination of tumors for regression.

LLC cells = assay: Combination of PD1 immune checkpoint inhibitor and IO-125 in immunocompetent murine NSCLC tumor model (LLC cells s.c. in C57/BL6 mice); assay type: in vivo; settings: syngeneic lung cancer (LLC) bearing animals, two cycles
Method: The combination of a PD1 immune checkpoint inhibitor and IO-125 was evaluated in an immunocompetent murine NSCLS tumor model. The murine NSCLC tumor model was generated by subcutaneously implanting LLC cells in C57/BL6 mice. Treatment with saline (control), IO-125, immune check point inhibitor (anti-PD1 antibody, Biolegend) or combinatorial therapy (IO-125 and anti-PD1 antibody) was initiated when average tumor volume in the animals reached 100 mm^3, through i.v. administration of compounds. A schematic representation of the treatment regimen is depicted in FIG. 1A.
as §2

4T1 cells [8] = assay: Murine triple negative breast cancer (TNBC) tumor model (4T1 s.c. in Balb/c mice); assay type: in vivo; settings: 4T1 tumor-bearing Balb/c mice, 20 mgPt/kg, two cycles
Source text: as §3

CC(C)CCCC(C)C1CCC2C3CC=C4CC(OCCN(CC(=O)[O-])CC(=O)[O][Pt+]5[NH]C6CCCCC6[NH]5)CCC4(C)C3CCC12C (stereo not drawn) [IO-125]
tumor ablation in Jh−/− mice (FIG. 4C) (4T1 cells [1]): Tumor ablation did not occur
IGKC levels (FIG. 2D) (IGKC [2]; LLC tumors of treated animals, relative expression of immune biomarkers): increase in IGKC levels
immunodetection of B220 and IGKC in tumor sections (FIG. 2E) (IGKC [2]; treated versus control tumors): significantly increased expression of IGKC
tumor growth after re-implantation of cancer cells, Group 1 (4T1 cells [3]; animals that had previously undergone tumor regression with treatment): no tumor growth was observed
tumor growth after implantation of 4T1 cells, Group 2 (4T1 cells [3]; non-tumor bearing Balb/c mice pre-treated, compared with saline treated mice (Group 3)): led to the growth of tumors
expression of TLRs and CD80 in splenic B cells [4]: elevated expression of TLRs and CD80
IGKC mRNA levels in splenic B cells (FIG. 5B) ([4]; normalized to Group 2): significant increase in IGKC mRNA levels
B cell differentiation markers and TLR activation markers, relative mRNA (FIG. 4B) [5]: substantially increased
tumor ablation in SCID mice (FIG. 4D) (4T1 cells [6]): Tumor ablation did not occur
IGKC mRNA levels in tumors (FIG. 2B) (IGKC [7]): significant increase in IGKC mRNA levels
tumor growth curves (FIG. 2C) (LLC cells): significant tumor growth inhibition but no regression
tumor growth curve (FIG. 2A) (4T1 cells [8]): complete regression of tumors
